From ChEMBL document CHEMBL1201862, “PubChem BioAssay data set” (2004)
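Exposure lasted 48 hours, with cells grown in 96-well plates and compounds tested at five concentrations. The concentration for 50% growth inhibition is given as GI50.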 Calls of active or inactive are those of the source. No stated cut-off is given here; in the data, active = GI50 up to about 1.1 µM and inactive = higher.

Tests used:
Assay in all cases: NCI-60 cell line screen, 48 h
[1] = test system: RPMI-8226
[2] = test system: HOP-92
[3] = test system: U-251
[4] = test system: CAKI-1
[5] = test system: SN12C
[6] = test system: IGROV-1
[7] = test system: MDA-MB-435
[8] = test system: UACC-62
[9] = test system: A549
[10] = test system: CCRF-CEM
[11] = test system: SR
[12] = test system: SF-268
[13] = test system: Hs-578T
[14] = test system: EKVX
[15] = test system: RXF 393
[16] = test system: SF-539
[17] = test system: T47D
[18] = test system: KM12
[19] = test system: PC-3
[20] = test system: SK-OV-3

Q: Which results are given for `Cc1ccc(-c2nc3cc([N+](=O)[O-])ccc3[nH]2)cc1`?
A: GI50 [1]: 43.1 µM (inactive); GI50 [2]: > 100 µM (inactive); GI50 [3]: > 100 µM (inactive); GI50 [4]: 38 µM (inactive); GI50 [5]: > 100 µM (inactive); GI50 [6]: > 100 µM (inactive); GI50 [7]: > 100 µM (inactive); GI50 [8]: > 100 µM (inactive); GI50 [9]: 54.1 µM (inactive); GI50 [10]: 39.6 µM (inactive); GI50 [11]: 70.8 µM (inactive); GI50 [12]: > 100 µM (inactive); GI50 [13]: > 100 µM (inactive); GI50 [14]: 51.6 µM (inactive); GI50 [15]: > 100 µM (inactive); GI50 [16]: > 100 µM (inactive); GI50 [17]: 39.6 µM (inactive); GI50 [18]: 54 µM (inactive); GI50 [19]: 38.9 µM (inactive); GI50 [20]: > 100 µM (inactive)

Q: For `O=C(NNC(=O)c1ccccc1SSc1ccccc1C(=O)NNC(=O)c1ccccc1S)c1ccccc1S`, which GI50 [1] is on record?
A: Its GI50 is 43.1 µM (inactive).

Q: What about the GI50 [2] of the same molecule?
A: The GI50 was 39.2 µM (inactive).

Q: What about the GI50 [3] of the same molecule?
A: Its GI50 is 19.5 µM (inactive).

Q: And the GI50 [4]?
A: The GI50 was 12.9 µM (inactive).

Q: And the GI50 [5]?
A: The GI50 was 18.5 µM (inactive).

Q: And the GI50 [6]?
A: The GI50 was 11.6 µM (inactive).

Q: What about the GI50 [7] of the same molecule?
A: The GI50 was 16.1 µM (inactive).

Q: And the GI50 [8]?
A: Its GI50 is 17.5 µM (inactive).

Q: What about the GI50 [9] of the same molecule?
A: The GI50 was 13.4 µM (inactive).

Q: And the GI50 [10]?
A: Its GI50 is 1.29 µM (inactive).

Q: What about the GI50 [11] of the same molecule?
A: Its GI50 is 5.35 µM (inactive).

Q: What about the GI50 [12] of the same molecule?
A: Its GI50 is 4.24 µM (inactive).

Q: And the GI50 [13]?
A: Its GI50 is 0.404 µM (active).

Q: And the GI50 [14]?
A: Its GI50 is 15 µM (inactive).

Q: And the GI50 [15]?
A: The GI50 was 64.9 µM (inactive).

Q: What about the GI50 [16] of the same molecule?
A: Its GI50 is 13.8 µM (inactive).

Q: And the GI50 [17]?
A: The GI50 was 9.16 µM (inactive).

Q: What about the GI50 [18] of the same molecule?
A: The GI50 was 30.5 µM (inactive).

Q: What about the GI50 [19] of the same molecule?
A: The GI50 was 24.6 µM (inactive).

Q: What about the GI50 [20] of the same molecule?
A: Its GI50 is 46.5 µM (inactive).

Q: Which results are given for `C=C(C=O)c1c2c(nc3ccccc13)C(=O)c1ccccc1C2=O`?
A: GI50 [1]: 0.296 µM (active); GI50 [2]: 1.67 µM (inactive); GI50 [3]: 0.482 µM (active); GI50 [4]: 0.52 µM (active); GI50 [5]: 0.504 µM (active); GI50 [6]: 0.252 µM (active); GI50 [7]: 0.273 µM (active); GI50 [8]: 0.918 µM (active); GI50 [9]: 1.86 µM (inactive); GI50 [10]: 0.191 µM (active); GI50 [11]: 0.24 µM (active); GI50 [12]: 0.668 µM (active); GI50 [13]: 0.617 µM (active); GI50 [14]: 1.19 µM (inactive); GI50 [15]: 0.304 µM (active); GI50 [16]: 0.673 µM (active); GI50 [17]: 0.646 µM (active); GI50 [18]: 1.22 µM (inactive); GI50 [19]: 1.29 µM (inactive); GI50 [20]: 2.9 µM (inactive)

Q: Which results are given for `C=CCn1c(=O)c2ccccc2[n+]2c(-c3cccc([N+](=O)[O-])c3)csc12`?
A: GI50 [1]: 30.7 µM (inactive); GI50 [2]: 56.2 µM (inactive); GI50 [3]: 77.4 µM (inactive); GI50 [4]: 97.3 µM (inactive); GI50 [5]: > 100 µM (inactive); GI50 [6]: 50.5 µM (inactive); GI50 [7]: 40.8 µM (inactive); GI50 [8]: 31.6 µM (inactive); GI50 [9]: 42.2 µM (inactive); GI50 [10]: 27.5 µM (inactive); GI50 [11]: 17 µM (inactive); GI50 [12]: 48.9 µM (inactive); GI50 [13]: 24.4 µM (inactive); GI50 [14]: 33.7 µM (inactive); GI50 [15]: 37.2 µM (inactive); GI50 [16]: 96.8 µM (inactive); GI50 [17]: 19.7 µM (inactive); GI50 [18]: 45.4 µM (inactive); GI50 [19]: 30.9 µM (inactive); GI50 [20]: 68.1 µM (inactive)

Q: For `CCn1c(=O)c2cn[nH]c2n(C)c1=O`, which GI50 [1] is on record?
A: Its GI50 is > 100 µM (inactive).

Q: What about the GI50 [2] of the same molecule?
A: Its GI50 is > 100 µM (inactive).

Q: What about the GI50 [3] of the same molecule?
A: Its GI50 is > 100 µM (inactive).

Q: What about the GI50 [4] of the same molecule?
A: The GI50 was > 100 µM (inactive).

Q: And the GI50 [5]?
A: The GI50 was > 100 µM (inactive).

Q: What about the GI50 [6] of the same molecule?
A: The GI50 was 66.7 µM (inactive).

Q: And the GI50 [7]?
A: The GI50 was > 100 µM (inactive).

Q: What about the GI50 [8] of the same molecule?
A: Its GI50 is > 100 µM (inactive).

Q: And the GI50 [9]?
A: Its GI50 is > 100 µM (inactive).

Q: What about the GI50 [10] of the same molecule?
A: The GI50 was > 100 µM (inactive).

Q: What about the GI50 [11] of the same molecule?
A: The GI50 was > 100 µM (inactive).

Q: And the GI50 [12]?
A: Its GI50 is > 100 µM (inactive).

Q: What about the GI50 [13] of the same molecule?
A: Its GI50 is > 100 µM (inactive).

Q: And the GI50 [14]?
A: Its GI50 is > 100 µM (inactive).

Q: And the GI50 [15]?
A: Its GI50 is > 100 µM (inactive).

Q: And the GI50 [16]?
A: Its GI50 is > 100 µM (inactive).

Q: And the GI50 [17]?
A: Its GI50 is > 100 µM (inactive).

Q: And the GI50 [18]?
A: The GI50 was > 100 µM (inactive).

Q: And the GI50 [19]?
A: Its GI50 is > 100 µM (inactive).

Q: What about the GI50 [20] of the same molecule?
A: Its GI50 is > 100 µM (inactive).

Q: Which GI50 [1] does the source give for `CCCC(=O)NC(C(=O)OCC)(N1CCOCC1)C(F)(F)F` (stereo not given) here?
A: The GI50 was > 100 µM (inactive).

Q: And the GI50 [2]?
A: Its GI50 is > 100 µM (inactive).

Q: And the GI50 [3]?
A: The GI50 was > 100 µM (inactive).

Q: And the GI50 [4]?
A: Its GI50 is > 100 µM (inactive).

Q: What about the GI50 [5] of the same molecule?
A: The GI50 was > 100 µM (inactive).

Q: What about the GI50 [6] of the same molecule?
A: Its GI50 is > 100 µM (inactive).

Q: And the GI50 [7]?
A: The GI50 was > 100 µM (inactive).

Q: And the GI50 [8]?
A: Its GI50 is > 100 µM (inactive).

Q: And the GI50 [9]?
A: Its GI50 is > 100 µM (inactive).

Q: And the GI50 [10]?
A: Its GI50 is > 100 µM (inactive).

Q: What about the GI50 [11] of the same molecule?
A: The GI50 was > 100 µM (inactive).

Q: What about the GI50 [12] of the same molecule?
A: The GI50 was > 100 µM (inactive).

Q: And the GI50 [13]?
A: The GI50 was > 100 µM (inactive).

Q: And the GI50 [14]?
A: The GI50 was > 100 µM (inactive).

Q: And the GI50 [15]?
A: Its GI50 is > 100 µM (inactive).

Q: And the GI50 [16]?
A: The GI50 was > 100 µM (inactive).

Q: What about the GI50 [17] of the same molecule?
A: The GI50 was > 100 µM (inactive).

Q: What about the GI50 [18] of the same molecule?
A: The GI50 was > 100 µM (inactive).

Q: And the GI50 [19]?
A: The GI50 was > 100 µM (inactive).

Q: What about the GI50 [20] of the same molecule?
A: Its GI50 is > 100 µM (inactive).

Q: Which results are given for `COC1CC(OC(=O)c2ccccc2)C(OC(=O)c2ccccc2)C(C)O1` (stereo not given)?
A: GI50 [1]: > 100 µM (inactive); GI50 [2]: 19.3 µM (inactive); GI50 [3]: > 100 µM (inactive); GI50 [4]: > 100 µM (inactive); GI50 [5]: > 100 µM (inactive); GI50 [6]: > 100 µM (inactive); GI50 [7]: > 100 µM (inactive); GI50 [8]: > 100 µM (inactive); GI50 [9]: > 100 µM (inactive); GI50 [10]: > 100 µM (inactive); GI50 [11]: > 100 µM (inactive); GI50 [12]: > 100 µM (inactive); GI50 [13]: 59.8 µM (inactive); GI50 [14]: > 100 µM (inactive); GI50 [15]: > 100 µM (inactive); GI50 [16]: > 100 µM (inactive); GI50 [17]: > 100 µM (inactive); GI50 [18]: > 100 µM (inactive); GI50 [19]: > 100 µM (inactive); GI50 [20]: > 100 µM (inactive)
